Test systems include MCF7 breast; SK-MEL-2 melanoma; EKVX NSCLC; HT29 colon; SNB-75 CNS; ACHN renal; HS 578T breast; MOLT-4 leukemia; M14 melanoma; A549 NSCLC.
Experiment in all cases: NCI tumour cell line growth inhibition, 48 h

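Where inhibition never reached the appropriate level, the endpoint shown equals the highest concentration tested. Otherwise, values were interpolated linearly from a five-concentration, 48-hour dose response in 96-well plates. The concentration for 50% growth inhibition is given as GI50. TGI: total growth inhibition.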

`CCCCCCSSC(=S)N(CC)CC`: the GI50 is 13.9 µM in the test on MCF7 breast; 25 µM in the test with SK-MEL-2 melanoma; 37.1 µM with EKVX NSCLC; 20.5 µM in the test on HT29 colon; 16.8 µM with SNB-75 CNS; 20.1 µM in the test with ACHN renal. The GI50 was 28.3 µM with HS 578T breast, 17.7 µM in the test on MOLT-4 leukemia, 19.2 µM in the test with M14 melanoma and 32.4 µM in the test on A549 NSCLC. Besides, the TGI was 30.8 µM in the test with MCF7 breast; 58.7 µM with SK-MEL-2 melanoma; more than 100 µM in the test on EKVX NSCLC; 38.8 µM with HT29 colon; 47.6 µM in the test on SNB-75 CNS; 41.7 µM with ACHN renal. Also, the TGI was more than 100 µM with HS 578T breast, 44.5 µM in the test on MOLT-4 leukemia, 47.6 µM in the test on M14 melanoma and 98.6 µM in the test with A549 NSCLC.

Regarding `O=C(NCC(F)(F)F)Nc1cccc(-c2cnc3cc(-c4ccc(F)cc4)ccn23)c1`, the GI50 in the test on MCF7 breast is 0.586 µM; in the test on SK-MEL-2 melanoma, 0.477 µM; with EKVX NSCLC, 5.17 µM; with HT29 colon, 0.314 µM; in the test on SNB-75 CNS it was 0.24 µM; with ACHN renal it was 2.53 µM. The GI50 in the test with HS 578T breast is 0.733 µM; with MOLT-4 leukemia, 0.681 µM; with M14 melanoma, 1.15 µM; in the test on A549 NSCLC, 0.947 µM. Moreover, the TGI in the test with MCF7 breast was 18.5 µM; with SK-MEL-2 melanoma it was 12 µM; with EKVX NSCLC it was more than 100 µM; with HT29 colon it was 1.23 µM; in the test with SNB-75 CNS, 2.09 µM; in the test on ACHN renal, more than 52.1 µM. Further, the TGI in the test with HS 578T breast is more than 100 µM; in the test on MOLT-4 leukemia it was more than 29 µM; with M14 melanoma, more than 100 µM; in the test with A549 NSCLC, more than 100 µM.

Regarding `CNCCCNc1nc2ccccc2c2c(=O)c3cc(OC)ccc3sc12`, the GI50 is 1.69 µM in the test with MCF7 breast; 2.04 µM in the test on SK-MEL-2 melanoma; 1.72 µM with EKVX NSCLC; 1.72 µM in the test on HT29 colon; 1.69 µM in the test on SNB-75 CNS; 1.64 µM in the test with ACHN renal. Besides, the GI50 was 1.94 µM with HS 578T breast, 2.06 µM in the test with MOLT-4 leukemia, 1.99 µM in the test with M14 melanoma and 1.84 µM in the test on A549 NSCLC. For the same compound, the TGI in the test on MCF7 breast was 3.32 µM; in the test with SK-MEL-2 melanoma, 4.44 µM; with EKVX NSCLC it was 3.7 µM; with HT29 colon it was 3.56 µM; in the test with SNB-75 CNS it was 3.39 µM; in the test with ACHN renal it was 3 µM. Besides, the TGI with HS 578T breast was found to be 4.77 µM; in the test on MOLT-4 leukemia, 4.41 µM; in the test with M14 melanoma, 3.82 µM; with A549 NSCLC, 3.82 µM.

Turning to `COC(=O)Nc1nc2ccccc2[nH]1`, the TGI was more than 100 µM in the test on MCF7 breast; more than 100 µM in the test on SK-MEL-2 melanoma; more than 100 µM in the test on EKVX NSCLC; more than 100 µM with HT29 colon; more than 73.8 µM with SNB-75 CNS; more than 100 µM in the test on ACHN renal. The TGI was more than 95.4 µM in the test on HS 578T breast, more than 100 µM in the test with MOLT-4 leukemia, more than 100 µM in the test with M14 melanoma and more than 100 µM with A549 NSCLC.

As for `COc1ccc(C(=O)c2cc(C)c(OC)c(C)c2)c(OC)c1NC(C)=O`, the GI50 in the test with MCF7 breast was 0.491 µM; in the test on SK-MEL-2 melanoma, more than 100 µM; in the test with EKVX NSCLC it was 0.251 µM; with HT29 colon, 0.468 µM; with SNB-75 CNS, 0.0425 µM; with ACHN renal, 0.0944 µM. Besides, the GI50 with HS 578T breast was 0.0715 µM; in the test with MOLT-4 leukemia, 3.13 µM; in the test with M14 melanoma it was 0.15 µM; in the test on A549 NSCLC, 0.389 µM. Moreover, the TGI in the test on MCF7 breast, in the test with SK-MEL-2 melanoma, with EKVX NSCLC, in the test on HT29 colon, with SNB-75 CNS and in the test with ACHN renal was more than 100 µM each time. Also, the TGI in the test on HS 578T breast, in the test with MOLT-4 leukemia, in the test with M14 melanoma and in the test on A549 NSCLC was more than 100 µM in each case.

In the case of `O=C(CN(/C=C/C(=O)C(F)(F)F)c1ccc(Cl)cc1)c1ccc(Cl)c(Cl)c1`, the GI50 with MCF7 breast is 3.42 µM; in the test with SK-MEL-2 melanoma it was 7.15 µM; with EKVX NSCLC it was 14.5 µM; in the test with HT29 colon it was 3.96 µM; with SNB-75 CNS, 13.6 µM; in the test with ACHN renal, 2.48 µM. Besides, the GI50 is 16.6 µM in the test with HS 578T breast, 2.57 µM in the test on MOLT-4 leukemia, 6.51 µM in the test on M14 melanoma and 7.09 µM with A549 NSCLC. Besides, the TGI in the test on MCF7 breast is 16.6 µM; in the test with SK-MEL-2 melanoma it was 20.7 µM; in the test on EKVX NSCLC, 29.3 µM; in the test on HT29 colon, more than 100 µM; in the test on SNB-75 CNS, 31.6 µM; in the test on ACHN renal, 9.74 µM. In addition, the TGI in the test with HS 578T breast stood at 38.3 µM; with MOLT-4 leukemia it was 10.5 µM; in the test on M14 melanoma, 19.3 µM; in the test with A549 NSCLC, 21.5 µM.

Regarding `NC(=O)c1ccc(Oc2nccc(-c3c(-c4ccc(F)cc4)ncn3C3CCNCC3)n2)cc1`, the GI50 in the test with MCF7 breast, in the test on SK-MEL-2 melanoma, in the test with EKVX NSCLC, in the test with HT29 colon, with SNB-75 CNS and in the test on ACHN renal was more than 25 µM throughout. For the same compound, the GI50 is more than 9.72 µM in the test on HS 578T breast, more than 25 µM in the test with MOLT-4 leukemia, more than 25 µM in the test on M14 melanoma and more than 25 µM in the test on A549 NSCLC. Besides, the TGI with MCF7 breast, with SK-MEL-2 melanoma, in the test on EKVX NSCLC, with HT29 colon, with SNB-75 CNS and in the test with ACHN renal was more than 25 µM throughout. Besides, the TGI with HS 578T breast, in the test with MOLT-4 leukemia, in the test on M14 melanoma and with A549 NSCLC was more than 25 µM each time.

On to `O=C(NCCCc1cn[nH]c1)c1ccc(-c2ccncc2)c(C#Cc2ccc(F)cc2)c1`, for which the GI50 in the test on MCF7 breast is 1.9 µM; in the test with SK-MEL-2 melanoma, 11.5 µM; in the test with EKVX NSCLC it was 8.39 µM; with HT29 colon, less than 0.01 µM; in the test on SNB-75 CNS, 8.82 µM; in the test on ACHN renal, 6.91 µM. Moreover, the GI50 in the test with HS 578T breast was 18.9 µM; in the test on MOLT-4 leukemia, 1.02 µM; with M14 melanoma, less than 0.01 µM; in the test with A549 NSCLC it was 0.481 µM. Moreover, the TGI was more than 70.2 µM in the test with MCF7 breast; more than 74.1 µM in the test with SK-MEL-2 melanoma; more than 100 µM with EKVX NSCLC; 36.7 µM with HT29 colon; more than 100 µM in the test with SNB-75 CNS; more than 100 µM in the test on ACHN renal. The TGI was more than 100 µM in the test on HS 578T breast, more than 57 µM in the test with MOLT-4 leukemia, more than 54.7 µM in the test with M14 melanoma and more than 100 µM in the test on A549 NSCLC.

Consider `C#C[C@@]1(O)[C@@H](CO)O[C@@H](n2cc(I)c3c(N)ncnc32)[C@@H]1O`, for which the GI50 with MCF7 breast was less than 0.0117 µM; with SK-MEL-2 melanoma, 0.239 µM; with EKVX NSCLC, 0.408 µM; in the test on HT29 colon, 0.0237 µM; in the test with SNB-75 CNS it was 0.457 µM; in the test with ACHN renal, 0.314 µM. Also, the GI50 was 0.785 µM in the test on HS 578T breast, 0.0489 µM with MOLT-4 leukemia, 0.49 µM in the test with M14 melanoma and 0.298 µM in the test on A549 NSCLC. For the same compound, the TGI in the test with MCF7 breast is more than 100 µM; in the test on SK-MEL-2 melanoma, 1.76 µM; in the test on EKVX NSCLC it was 5.37 µM; in the test with HT29 colon it was 4.75 µM; in the test on SNB-75 CNS, 1.99 µM; in the test with ACHN renal, more than 100 µM. The TGI is 7.83 µM in the test on HS 578T breast, 0.831 µM with MOLT-4 leukemia, 9.51 µM in the test on M14 melanoma and more than 100 µM with A549 NSCLC.

With `Cc1c(C#N)cccc1[C@@H](C)Nc1nnc(C)c2cnc(N3CCOCC3)cc12`, the GI50 in the test on MCF7 breast was 21.4 µM; in the test on SK-MEL-2 melanoma, 21.1 µM; in the test with EKVX NSCLC it was 18.3 µM; with HT29 colon, 35.2 µM; in the test with SNB-75 CNS, 17.7 µM; with ACHN renal it was 21.4 µM. Besides, the GI50 was 12.2 µM in the test on HS 578T breast, 28.3 µM in the test with MOLT-4 leukemia, 27 µM in the test on M14 melanoma and 36.2 µM in the test on A549 NSCLC. Further, the TGI with MCF7 breast is 72.4 µM; in the test with SK-MEL-2 melanoma, 64.6 µM; in the test with EKVX NSCLC, more than 100 µM; in the test on HT29 colon, more than 100 µM; with SNB-75 CNS, more than 100 µM; in the test with ACHN renal it was more than 100 µM. In addition, the TGI with HS 578T breast was 66.6 µM; in the test with MOLT-4 leukemia it was 90.6 µM; with M14 melanoma, 90.4 µM; with A549 NSCLC, more than 100 µM.

For the compound `O=[N+]([O-])c1ccc(Cl)c(CNc2ncnc3c2ncn3C2CCCCO2)c1` (stereo not given), the TGI is 62 µM with MCF7 breast; more than 100 µM in the test on SK-MEL-2 melanoma; more than 100 µM in the test on EKVX NSCLC; more than 100 µM in the test on HT29 colon; more than 100 µM in the test with SNB-75 CNS; more than 100 µM in the test on ACHN renal. Also, the TGI with HS 578T breast was more than 100 µM; in the test on MOLT-4 leukemia, 88.2 µM; with M14 melanoma, more than 100 µM; in the test with A549 NSCLC, more than 100 µM.

On to `CC/C(Cc1ccccc1)=C(\c1ccc(OCCN2CCCC2)cc1)c1ccc(OC(=O)NCc2ccccc2)cc1`, for which the GI50 in the test on MCF7 breast is 0.0994 µM; in the test with SK-MEL-2 melanoma, 2.09 µM; in the test with EKVX NSCLC it was 2.37 µM; with HT29 colon, 1.82 µM; in the test with SNB-75 CNS it was 2.13 µM; with ACHN renal, 1.69 µM. Moreover, the GI50 with HS 578T breast was 1.97 µM; with MOLT-4 leukemia it was 2.23 µM; in the test on M14 melanoma it was 1.73 µM; with A549 NSCLC, 1.88 µM. For the same compound, the TGI with MCF7 breast turned out to be 2.16 µM; with SK-MEL-2 melanoma, 3.99 µM; in the test on EKVX NSCLC, 7.39 µM; in the test on HT29 colon it was 3.47 µM; with SNB-75 CNS it was 6.53 µM; in the test on ACHN renal, 3.06 µM. Also, the TGI with HS 578T breast stood at 4.32 µM; with MOLT-4 leukemia it was 5.66 µM; with M14 melanoma, 3.31 µM; with A549 NSCLC, 3.47 µM.

Source of the values: PubChem BioAssay (NCI).
